Experimental data from patent US12144864B2, “Tubulysins and protein-tubulysin conjugates” (Regeneron Pharmaceuticals, Inc., priority 2018, dated 2024).
Read-outs that look alike come from different tables or passages of the source.

Tests used:
C4-2 cells = assay: Cell-based killing assay of payloads (CellTiter-Glo), C4-2 cells; set-up: species or system human; conditions: 5-day incubation; for IC50: Homo sapiens, C4-2, 120 h, average ± SD where replicates; for C4-2 % Kill: at maximum concentration tested (100 − % viable cells)
Summary of the method: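 Viability readout is CellTiter-Glo luminescence after a 5-day exposure to 10-point, threefold-diluted payloads spanning 100 nM–[…], following overnight attachment of 4000 cells/well. Four-parameter logistic fit gives IC50 in M; % kill taken at highest concentration tested.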

T47D cells = assay: Cell-based killing assay of payloads (CellTiter-Glo), T47D cells; set-up: species or system human; conditions: 5-day incubation; for IC50: Homo sapiens, T47D, 120 h; for T47D % Kill: at maximum concentration tested
Description: (§1) To test the ability of the disclosed tubulysin payloads to kill human cell lines, an in vitro cytotoxicity assay was performed. In vitro cytotoxicity of the disclosed payloads, as well as reference compounds, were evaluated using the CellTiter-Glo Assay Kit (Promega, Cat #G7573), in which the quantity of ATP present is used to determine the number of viable cells in culture. For the assay, C4-2, HEK293, or T47D cells were seeded at 4000 cells/well on Nunclon white 96-well plates in complete growth medium (DME high glucose:Ham's F12 at 4:1, 10% FBS, 100 units/ml Penicillin, 100 ug/ml streptomycin, 53 ug/ml glutatmine, 10 ug/ml insulin, 220 ng/ml biotin, 12.5 pg/ml T3, 12.5 ug/ml Adenine, 4 ug/ml transferrin for C42 cells; DME high glucose, 10% FBS, 100 units/ml Penicillin, 100 ug/ml streptomycin, 53 ug/ml glutatmine for HEK293; RPMI, 10% FBS, 100 units/ml Penicillin, 100 ug/ml streptomycin, 53 ug/ml glutatmine, 10 ug/ml insulin, 10 mM HEPEs, 200 nM Sodium Pyruvate for T47D cells) and grown overnight at 37° C. in 5% CO2. For cell viability curves, 1:3 serially diluted payloads were added to the cells at final concentrations ranging from 100 nM to […], including a no treatment control group, and were then incubated for 5 days. After the 5-day incubation, cells were incubated at room temperature with 100 μL of CellTiter-Glo reagents for 10 minutes. Relative luminescence units (RLU) were determined on a Victor plate reader (PerkinElmer). The IC50 values were determined from a four-parameter logistic equation over a 10-point response curve (GraphPad Prism). All IC50 values are expressed in molar (M) concentration. The percent cell killing (% kill) at the maximum concentration tested was estimated from the following formula (100−% viable cells). Averages±standard deviation (SD) are included where replicate experiments were performed.

HEK293 cells = assay: Cell-based killing assay of payloads (CellTiter-Glo), HEK293 cells; set-up: species or system human; conditions: 5-day incubation; for IC50: Homo sapiens, HEK293, 120 h; for HEK293 % Kill: at maximum concentration tested
Description: as §1

HCT15 cells = assay: cells; type: cell-based, human; conditions: HCT15 cells; for HCT-15 + verapamil % Kill / HCT-15 % Kill: maximum % cell killing
Summary of the method: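 Five-day exposure of 1000 HCT15 cells/well to threefold payload dilutions, run both plus and minus verapamil (5 ug/mL) in RPMI with 10% FBS. ATP luminescence (CellTiter-Glo) gives viability; four-parameter logistic fit of 10 points yields IC50, and 100 − % viable at highest dose gives % kill.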

HL60/MX2 cells = assay: Cytotoxicity in panel of MDR cell lines, HL60/MX2 (72 h and 144 h); type: cell-based, human; conditions: for IC50: Homo sapiens
Summary of the method: (§2)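 MDR lines were seeded at 1000 cells/well in their normal growth media: RPMI/10% FBS for HCT-15 and HL60/MX2, RPMI/20% FBS for H69AR, and Waymouth's:McCoy's 1:1 with 10% FBS for MES-SA/MX2. Cells were exposed to 1:3 serially diluted payloads for 72 h or 144 h, and viability was read by CellTiter-Glo ATP luminescence. IC50 came from a four-parameter logistic fit; % kill at top concentration = 100 − % viable.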

MES-SA/MX2 cells = assay: Cytotoxicity in panel of MDR cell lines, MES-SA/MX2 (72 h and 144 h); type: cell-based, human; conditions: for IC50: Homo sapiens
Summary of the method: as §2

HCT-15 cells = assay: Cytotoxicity in panel of MDR cell lines, HCT-15 (72 h and 144 h); type: cell-based, human; conditions: for IC50: Homo sapiens
Summary of the method: as §2

H69AR cells = assay: Cytotoxicity in panel of MDR cell lines, H69AR (72 h and 144 h); type: cell-based, human; conditions: for IC50: Homo sapiens
Summary of the method: as §2

[1] = with 5 ug/mL Verapamil, read-out: HCT-15 + verapamil IC50
[2] = Homo sapiens, HCT-15, without Verapamil, read-out: HCT-15 IC50
[3] = 72 h incubation, read-out: HL60/MX2 IC50 72 h
[4] = 144 h incubation, read-out: HL60/MX2 IC50 144 h
[5] = 72 h incubation, read-out: MES-SA/MX2 IC50 72 h
[6] = 144 h incubation, read-out: MES-SA/MX2 IC50 144 h
[7] = 72 h incubation, read-out: HCT-15 IC50 72 h
[8] = 144 h incubation, read-out: HCT-15 IC50 144 h
[9] = 72 h incubation, read-out: H69AR IC50 72 h
[10] = 144 h incubation, read-out: H69AR IC50 144 h

Structure (SMILES)	IC50 (C4-2 cells) [nM]	C4-2 % Kill (C4-2 cells) [%]	IC50 (T47D cells) [nM]	T47D % Kill (T47D cells) [%]	IC50 (HEK293 cells) [nM]	HEK293 % Kill (HEK293 cells) [%]	HCT-15 + verapamil % Kill (HCT15 cells; with 5 ug/mL Verapamil) [%]	IC50 (HCT15 cells; [1]) [nM]	HCT-15 % Kill (HCT15 cells; without Verapamil) [%]	IC50 (HCT15 cells; [2]) [nM]	HL60/MX2 % Kill 72 h (HL60/MX2 cells; 72 h incubation) [%]	HL60/MX2 % Kill 144 h (HL60/MX2 cells; 144 h incubation) [%]	IC50 (HL60/MX2 cells; [3]) [nM]	IC50 (HL60/MX2 cells; [4]) [nM]	MES-SA/MX2 % Kill 72 h (MES-SA/MX2 cells; 72 h incubation) [%]	MES-SA/MX2 % Kill 144 h (MES-SA/MX2 cells; 144 h incubation) [%]	IC50 (MES-SA/MX2 cells; [5]) [nM]	IC50 (MES-SA/MX2 cells; [6]) [nM]	HCT-15 % Kill 72 h (HCT-15 cells; 72 h incubation) [%]	HCT-15 % Kill 144 h (HCT-15 cells; 144 h incubation) [%]	other results
C#CCCCON(C(=O)[C@@H](NC(=O)[C@H]1CCCCN1C)[C@@H](C)CC)[C@H](C[C@@H](OC(C)=O)c1nc(C(=O)N[C@@H](Cc2ccc(O)cc2)C[C@H](C)C(=O)O)cs1)C(C)C [Vg, (2S,4R)-4-({2-[(1R,3R)-1-(Acetyloxy)-4-methyl-3-[(2S,3S)-3-methyl-2-{[(2R)-1-methylpiperidin-2-yl]formamido}-N-(pent-4-yn-1-yloxy)pentanamido]pentyl]-1,3-thiazol-4-yl}formamido)-5-(4-hydroxyphenyl)-2-methylpentanoic acid]	0.369	93.2	0.535	65.2	0.7	86.4	98	0.237	94.9	0.53	98	99.9	0.131	0.061	98	99.8	3.54	5.3	97.6	99.5	IC50 (HCT-15 cells; [7]): 0.68 nM; IC50 (HCT-15 cells; [8]): 0.916 nM; H69AR % Kill 72 h (H69AR cells; 72 h incubation): 94.2%; H69AR % Kill 144 h (H69AR cells; 144 h incubation): 98.4%; IC50 (H69AR cells; [9]): 2.13 nM; IC50 (H69AR cells; [10]): 2.72 nM
C#CCCCCN(C(=O)[C@@H](NC(=O)[C@H]1CCCCN1C)[C@@H](C)CC)[C@H](C[C@@H](OC(C)=O)c1nc(C(=O)N[C@@H](Cc2ccc(F)cc2)C[C@H](C)C(=O)O)cs1)C(C)C [IVe, (2S,4R)-4-({2-[(1R,3R)-1-(Acetyloxy)-3-[(2S,3S)—N-(hex-5-yn-1-yl)-3-methyl-2-{[(2R)-1-methylpiperidin-2-yl]formamido}pentanamido]-4-methylpentyl]-1,3-thiazol-4-yl}formamido)-5-(4-fluorophenyl)-2-methylpentanoic acid]	0.0742	91.8	0.155	67.2	0.281	86.7	97.6	0.1	95.8	0.295	97.3	99.9	< 0.015	< 0.015	99.6	99.9	0.786	2.81	98.1	99.6	IC50 (HCT-15 cells; [7]): 0.133 nM; IC50 (HCT-15 cells; [8]): 0.23 nM; H69AR % Kill 72 h (H69AR cells; 72 h incubation): 96.5%; H69AR % Kill 144 h (H69AR cells; 144 h incubation): 99%; IC50 (H69AR cells; [9]): 0.585 nM; IC50 (H69AR cells; [10]): 1.26 nM
CCCCCON(C(=O)[C@@H](NC(=O)[C@H]1CCCCN1C)[C@@H](C)CC)[C@H](C[C@@H](OC(C)=O)c1nc(C(=O)N[C@@H](Cc2ccc(N)cc2)CC(C)(C)C(=O)O)cs1)C(C)C [Vb, (4S)-4-({2-[(1R,3R)-1-(Acetyloxy)-4-methyl-3-[(2S,3S)-3-methyl-2-{[(2R)-1-methylpiperidin-2-yl]formamido}-N-(pentyloxy)pentanamido]pentyl]-1,3-thiazol-4-yl}formamido)-5-(4-aminophenyl)-2,2-dimethylpentanoic acid]	0.07	92.3 ± 1.7	0.144	66.5	0.289	87.8	98.2 ± 0.5	0.0365	98.8 ± 0.7	0.12	97.9	100	< 0.015	< 0.015	99.6	99.9	0.213	1.04	97.8	99.7	IC50 (HCT-15 cells; [7]): 0.0623 nM; IC50 (HCT-15 cells; [8]): 0.127 nM; H69AR % Kill 72 h (H69AR cells; 72 h incubation): 97%; H69AR % Kill 144 h (H69AR cells; 144 h incubation): 99.4%; IC50 (H69AR cells; [9]): 0.272 nM; IC50 (H69AR cells; [10]): 0.66 nM
CCCCCCON(C(=O)[C@@H](NC(=O)[C@H]1CCCCN1C)[C@@H](C)CC)[C@H](C[C@@H](OC(=O)NCC)c1nc(C(=O)N[C@@H](Cc2ccc(O)cc2)C[C@H](C)C(=O)O)cs1)C(C)C [VIb, (2S,4R)-5-(4-hydroxyphenyl)-4-(2-((6R,8R)-8-isopropyl-9-((2S,3S)-3-methyl-2-((R)-1-methylpiperidine-2-carboxamido)pentanoyl)-4-oxo-5,10-dioxa-3,9-diazahexadecan-6-yl)thiazole-4-carboxamido)-2-methylpentanoic acid]	12	96.5	13.6	76.2	20.3	75.4	97.8	2.88	54.7	> 50											
